Laboratory results published in BindingDB's records for patent US11220494 (Pfizer Inc., 2022).

Target: Cyclin-dependent kinase 6/G1/S-specific cyclin-D3 (Homo sapiens, UniProt Q00534+P30281)
Test: Mobility Shift Assay
Description: The purpose of the CDK6/Cyclin D3 assay is to evaluate the inhibition (% inhibition, Kiapp and Ki values) in the presence of small molecule inhibitors by using a fluorescence based microfluidic mobility shift assay. […] The mobility shift assay electrophoretically separates the fluorescently labeled peptides (substrate and phosphorylated product) following the kinase reaction. Both substrate and product are measured and the ratio of these values is used to generate % conversion of substrate to product by the LabChip EZ Reader. […] The reaction was stopped after 95 minutes by the addition of 50 μL of 30 mM EDTA. Ki determinations were made from a plot of the fractional velocity as a function of inhibitor concentration fit to the Morrison equation with the enzyme concentration as a variable.

Sequence of Cyclin-dependent kinase 6/G1/S-specific cyclin-D3 (Q00534 whole entry): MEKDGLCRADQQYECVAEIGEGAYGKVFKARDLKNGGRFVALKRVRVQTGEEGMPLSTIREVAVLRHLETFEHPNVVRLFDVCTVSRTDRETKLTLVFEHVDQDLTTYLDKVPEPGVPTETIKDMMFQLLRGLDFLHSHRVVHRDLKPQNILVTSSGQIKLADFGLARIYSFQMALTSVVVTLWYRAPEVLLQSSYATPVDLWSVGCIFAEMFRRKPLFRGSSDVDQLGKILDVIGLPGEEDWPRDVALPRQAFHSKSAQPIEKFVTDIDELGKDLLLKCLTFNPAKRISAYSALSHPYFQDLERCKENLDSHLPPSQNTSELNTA
Sequence of Cyclin-dependent kinase 6/G1/S-specific cyclin-D3 (P30281 whole entry): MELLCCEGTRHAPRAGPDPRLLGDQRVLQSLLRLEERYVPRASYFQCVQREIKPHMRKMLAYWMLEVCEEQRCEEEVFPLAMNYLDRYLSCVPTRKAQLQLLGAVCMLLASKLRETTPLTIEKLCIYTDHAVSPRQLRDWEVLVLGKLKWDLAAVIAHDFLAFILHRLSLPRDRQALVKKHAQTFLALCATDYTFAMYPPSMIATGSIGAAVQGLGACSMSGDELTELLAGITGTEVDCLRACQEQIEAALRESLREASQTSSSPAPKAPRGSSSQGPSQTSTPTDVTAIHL

SMILES: CC(C)n1c([C@H](C)O)nc2c(F)cc(-c3cc(N[C@@H]4CCN(S(C)(=O)=O)C[C@H]4O)ncc3Cl)cc21 [US11220494, Example E01]
- Ki: 1.4 nM
